In patent US8598183B2, “Solid state forms of a potent HCV inhibitor” (Boehringer Ingelheim International GmbH, priority 2010, dated 2013):

Experiments:
[1] = Solubility of Compound (1) in physiological pH range; thermodynamic solubility; assay type: physicochemical; settings: aqueous buffer, thermodynamic from solid; physiological pH range of 2-6.8
Procedure: Doses of Compound (1) up to 400 to 600 mg per dose may be required to be delivered to obtain exposures necessary for sufficient efficacy in vivo. Based on thermodynamic solubility of Compound (1), solubility of 0.005-0.01 mg/ml is estimated for Compound (1) sodium salt.

[2] = target: HCV NS5B RNA-dependent RNA polymerase (Hepatitis C virus genotype 1a, UniProt P27958); settings: cited from earlier work
Chain of HCV NS5B RNA-dependent RNA polymerase (P27958 2421-3011): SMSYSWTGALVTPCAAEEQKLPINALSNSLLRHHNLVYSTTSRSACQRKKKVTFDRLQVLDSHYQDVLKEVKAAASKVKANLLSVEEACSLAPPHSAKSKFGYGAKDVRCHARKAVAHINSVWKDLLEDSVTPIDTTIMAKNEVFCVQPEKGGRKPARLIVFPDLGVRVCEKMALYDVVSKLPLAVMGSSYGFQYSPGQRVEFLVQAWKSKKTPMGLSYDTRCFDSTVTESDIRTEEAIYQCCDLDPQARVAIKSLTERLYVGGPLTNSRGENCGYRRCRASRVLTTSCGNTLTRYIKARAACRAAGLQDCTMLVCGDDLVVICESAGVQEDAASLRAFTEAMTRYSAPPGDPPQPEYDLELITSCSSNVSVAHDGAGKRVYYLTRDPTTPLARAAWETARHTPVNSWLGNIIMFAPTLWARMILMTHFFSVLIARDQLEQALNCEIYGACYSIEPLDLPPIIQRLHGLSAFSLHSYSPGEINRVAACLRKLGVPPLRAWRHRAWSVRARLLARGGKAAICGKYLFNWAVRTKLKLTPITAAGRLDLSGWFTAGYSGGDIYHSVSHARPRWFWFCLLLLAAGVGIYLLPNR

[3] = Powder dissolution testing in pH 6.8 buffer, USP Type II Paddle apparatus; assay type: physicochemical; settings: 60 minutes
[4] = Physical and chemical stability under accelerated storage conditions; assay type: physicochemical
Procedure: The glass transition temperature of the amorphous form of Compound (1) sodium salt is >200° C., which is quite atypical for pharmaceutical active materials and can be considered an unexpected finding.

| SMILES | solubility [1] [µg/mL] | inhibition of HCV NS5B RNA-dependent RNA polymerase [2] | % dissolved (kinetic dissolution) [3] | physical and chemical stability [4] |
| --- | --- | --- | --- | --- |
| Cn1c(C2(NC(=O)c3ccc4c(C5CCCC5)c(-c5ncc(Br)cn5)n(C)c4c3)CCC2)nc2ccc(/C=C/C(=O)O)cc21 [Compound (1), (E)-3-[2-(1-{[2-(5-Bromo-pyrimidin-2-yl)-3-cyclopentyl-1-methyl-1H-indole-6-carbonyl]-amino}-cyclobutyl)-3-methyl-3H-benzimidazol-5-yl]-acrylic acid] | < 0.2 | selective and potent inhibitor |  |  |
| Cn1c(C2(NC(=O)c3ccc4c(C5CCCC5)c(-c5ncc(Br)cn5)n(C)c4c3)CCC2)nc2ccc(/C=C/C(=O)[O-])cc21.[Na+] [amorphous Compound (1) sodium salt] |  |  | about 35% | acceptable physical and chemical stability |
